From PubChem BioAssay AID248 (DTP/NCI, 2004)
“And” between values parts separate entries of the source, which are not always exact repeats. Identical values can stand only once. Inconclusive results and toxic doses are left out. No stated cut-off is given here; in the data, active means T/C of 150% or more; inactive means T/C below 125%.

Test system: L1210 leukemia ip in BDF1 mice, survival T/C
Assay: NCI In Vivo Anticancer Drug Screen. Data for tumor model L1210 Leukemia (intraperitoneal) in B6D2F1 (BDF1) mice
Details: endpoint: mean survival time, higher = longer survival
Method in brief: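 Transplantable tumor model; survival measured in treated vs vehicle control mice. Value = treated/control.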

[1] = dose: 100.0 mg/kg/injection, schedule: Q01DX001 (ip), vehicle: saline
[2] = dose: 200.0 mg/kg/injection, schedule: Q01DX001 (ip), vehicle: saline
[3] = dose: 100.0 mg/kg/injection, schedule: Q01DX001 (ip), vehicle: carboxymethylcellulose (CMC)
[4] = dose: 200.0 mg/kg/injection, schedule: Q01DX001 (ip), vehicle: carboxymethylcellulose (CMC)
[5] = dose: 400.0 mg/kg/injection, schedule: Q01DX001 (ip), vehicle: carboxymethylcellulose (CMC)
[6] = dose: 100.0 mg/kg/injection, schedule: Q01DX009 (ip), vehicle: Klucel (hydroxypropylcellulose) (HPC)
[7] = dose: 100.0 mg/kg/injection, schedule: Q04DX003 (ip), vehicle: Klucel (hydroxypropylcellulose) (HPC)
[8] = dose: 200.0 mg/kg/injection, schedule: Q04DX003 (ip), vehicle: Klucel (hydroxypropylcellulose) (HPC)
[9] = dose: 100.0 mg/kg/injection, schedule: Q01DX009 (ip), vehicle: saline
[10] = dose: 200.0 mg/kg/injection, schedule: Q01DX009 (ip), vehicle: saline
[11] = dose: 400.0 mg/kg/injection, schedule: Q01DX001 (ip), vehicle: saline
[12] = dose: 25.0 mg/kg/injection, schedule: Q04DX002 (ip), vehicle: saline with Tween-80
[13] = dose: 100.0 mg/kg/injection, schedule: Q04DX002 (ip), vehicle: saline with Tween-80
[14] = dose: 100.0 mg/kg/injection, schedule: Q04DX003 (ip), vehicle: saline with Tween-80
[15] = dose: 200.0 mg/kg/injection, schedule: Q04DX003 (ip), vehicle: saline with Tween-80
[16] = dose: 200.0 mg/kg/injection, schedule: Q01DX009 (ip), vehicle: Klucel (hydroxypropylcellulose) (HPC)
[17] = dose: 400.0 mg/kg/injection, schedule: Q01DX009 (ip), vehicle: Klucel (hydroxypropylcellulose) (HPC)
[18] = dose: 400.0 mg/kg/injection, schedule: Q04DX003 (ip), vehicle: Klucel (hydroxypropylcellulose) (HPC)

Measured: T/C

Cc1cccc(Cl)c1NC(=O)CN(C)C
inactive: [1] 104 % of control | [2] 98 % of control

COc1ccc(OC)c(NC(=O)c2cccc(N)c2)c1
inactive: [3] 111 % of control | [4] 105 % of control | [5] 103 % of control

CCCCCCCCCCCCCCC(F)C(=O)O (centres undefined)
inactive: dose: 50.0 mg/kg/injection, schedule: Q01DX009 (ip), vehicle: Klucel (hydroxypropylcellulose) (HPC) 96 % of control | [6] 101 % of control | [7] 92 % of control | [8] 91 % of control

O=C(O)c1c[nH]c(=O)c([N+](=O)[O-])c1
inactive: dose: 50.0 mg/kg/injection, schedule: Q04DX003 (ip), vehicle: Klucel (hydroxypropylcellulose) (HPC) 97 % of control | [7] 91 % of control | [8] 92 % of control

CC(=O)OCc1ccc(-n2c(C(F)(F)F)nc3nc(Cl)c(Cl)nc32)o1
inactive: dose: 50.0 mg/kg/injection, schedule: Q01DX009 (ip), vehicle: saline 97 % of control | [9] 102 % of control | dose: 100.0 mg/kg/injection, schedule: Q04DX003 (ip), vehicle: saline 105 % of control | [10] 96 % of control | dose: 200.0 mg/kg/injection, schedule: Q04DX003 (ip), vehicle: saline 100 % of control | dose: 400.0 mg/kg/injection, schedule: Q01DX009 (ip), vehicle: saline 97 % of control | dose: 400.0 mg/kg/injection, schedule: Q04DX003 (ip), vehicle: saline 88 % of control

NC(=O)C(c1ccccc1)C1(O)CCCCC1 (centres undefined)
inactive: dose: 50.0 mg/kg/injection, schedule: Q01DX001 (ip), vehicle: saline 102 % of control | [1] 104 % of control | [2] 96 % of control | [11] 91 % of control

O=C(NC(c1ccccc1)C(O)c1ccccc1)c1ccc([N+](=O)[O-])cc1 (centres undefined)
inactive: dose: 50.0 mg/kg/injection, schedule: Q01DX001 (ip), vehicle: carboxymethylcellulose (CMC) 96 % of control | [3] 93 % of control | dose: 100.0 mg/kg/injection, schedule: Q04DX003 (ip), vehicle: acetone 109 % of control | [4] 93 % of control | dose: 200.0 mg/kg/injection, schedule: Q04DX003 (ip), vehicle: acetone 96 % of control | [5] 87 % of control | dose: 400.0 mg/kg/injection, schedule: Q04DX003 (ip), vehicle: acetone 103 % of control

OCC1CCCCC1CO (centres undefined)
inactive: dose: 100.0 mg/kg/injection, schedule: Q04DX002 (ip), vehicle: Klucel (hydroxypropylcellulose) (HPC) 113 % of control | dose: 200.0 mg/kg/injection, schedule: Q04DX002 (ip), vehicle: Klucel (hydroxypropylcellulose) (HPC) 107 % of control | dose: 400.0 mg/kg/injection, schedule: Q04DX002 (ip), vehicle: Klucel (hydroxypropylcellulose) (HPC) 103 % of control

C=C(C)C1CCC2(C(=O)OC)CCC3(C)C(CCC4C5(C)CCC(OC6CCCCO6)C(C)(C)C5CCC43C)C12 (centres undefined)
inactive: [12] 86 % of control | [13] 86 % of control

CC(C)CNC(=O)Oc1cccc(NC(=O)N(C)C)c1
inactive: [14] 92 % of control | [15] 94 % of control | dose: 400.0 mg/kg/injection, schedule: Q04DX003 (ip), vehicle: saline with Tween-80 94 % of control

O=C1c2ccccc2C(=O)N1CCl
inactive: dose: 100.0 mg/kg/injection, schedule: Q01DX001 (ip), vehicle: Klucel (hydroxypropylcellulose) (HPC) 93 % of control | dose: 200.0 mg/kg/injection, schedule: Q01DX001 (ip), vehicle: Klucel (hydroxypropylcellulose) (HPC) 104 % of control | dose: 400.0 mg/kg/injection, schedule: Q01DX001 (ip), vehicle: Klucel (hydroxypropylcellulose) (HPC) 114 % of control

Cc1ccccc1[P+](Cc1ccccc1)(c1ccccc1)c1ccccc1C
inactive: dose: 15.0 mg/kg/injection, schedule: Q01DX001 (ip), vehicle: saline 104 % of control

c1cnc2c3c(ccc2c1)CN(C12CC4CC(CC(C4)C1)C2)CO3
inactive: [14] 102 % of control | [15] 107 % of control

Cc1ccc(/C(C#N)=C2C=C(Br)/C(=N\O)C=C/2Cl)cc1
inactive: dose: 150.0 mg/kg/injection, schedule: Q01DX009 (ip), vehicle: saline with Tween-80 97 % of control | dose: 225.0 mg/kg/injection, schedule: Q01DX009 (ip), vehicle: saline with Tween-80 90 % of control

O=C1CCCC/C1=C/c1ccccc1
inactive: [6] 102 % of control and 112 % of control | [7] 97 % of control and 96 % of control | [16] 102 % of control | [8] 104 % of control and 101 % of control | [17] 102 % of control and 96 % of control | [18] 104 % of control and 100 % of control

O=C1CN(C2OC(CO)C(O)C2O)C(=O)NC1=O (centres undefined)
inactive: dose: 132.0 mg/kg/injection, schedule: Q01DX Z (ip), vehicle: carboxymethylcellulose (CMC) 107 % of control | dose: 200.0 mg/kg/injection, schedule: Q01DX Z (ip), vehicle: carboxymethylcellulose (CMC) 110 % of control | dose: 299.0 mg/kg/injection, schedule: Q01DX Z (ip), vehicle: carboxymethylcellulose (CMC) 124 % of control | dose: 449.0 mg/kg/injection, schedule: Q01DX Z (ip), vehicle: carboxymethylcellulose (CMC) 107 % of control

OC1CCC2NCCCC2C1 (centres undefined)
inactive: dose: 75.0 mg/kg/injection, schedule: Q01DX001 (ip), vehicle: carboxymethylcellulose (CMC) 101 % of control | dose: 150.0 mg/kg/injection, schedule: Q01DX001 (ip), vehicle: carboxymethylcellulose (CMC) 103 % of control

Cc1ccc(C(C)C)c(OC(=O)Nc2ccc(S(=O)(=O)NC3CCCCC3)cc2)c1
inactive: [1] 94 % of control | [2] 96 % of control | [11] 94 % of control

CC(=O)O[C@H]1CC[C@@]2(C)C(=CC[C@H]3[C@@H]4CC[C@H](O)[C@@]4(C)CC[C@@H]32)C1
inactive: [7] 103 % of control | [8] 103 % of control | [18] 96 % of control

N=C([Se])c1cn(C2OC(CO)C(O)C2O)c2ncnc(N)c12 (centres undefined)
inactive: dose: 0.09 mg/kg/injection, schedule: Q01DX009 (ip), vehicle: saline 109 % of control | dose: 0.19 mg/kg/injection, schedule: Q01DX005 (ip), vehicle: saline 119 % of control | dose: 0.19 mg/kg/injection, schedule: Q01DX009 (ip), vehicle: saline 108 % of control | dose: 0.39 mg/kg/injection, schedule: Q01DX005 (ip), vehicle: saline 117 % of control | dose: 0.39 mg/kg/injection, schedule: Q01DX009 (ip), vehicle: saline 104 % of control | dose: 0.78 mg/kg/injection, schedule: Q01DX005 (ip), vehicle: saline 106 % of control

CCOC(=O)Nc1cc(NC(c2ccccc2)c2ccccc2)c([N+](=O)[O-])c(N)n1
inactive: [3] 91 % of control | [4] 91 % of control | [5] 89 % of control

O=C(N/N=C/c1ccc(Cl)cc1)c1cccc([N+](=O)[O-])c1
inactive: [6] 94 % of control | [16] 94 % of control | [17] 95 % of control

N=C(N)SCCN
inactive: [1] 97 % of control | [9] 103 % of control | [2] 90 % of control | [10] 111 % of control | [11] 118 % of control

O=[N+]([O-])c1ccc(OP(=O)(N2CCCCC2)N2CCCCC2)cc1
inactive: [12] 93 % of control | dose: 50.0 mg/kg/injection, schedule: Q04DX002 (ip), vehicle: saline with Tween-80 101 % of control | [13] 93 % of control
